Read-outs that look alike come from different tables or passages of the source.
Test system: MDA-MB-231 triple negative breast cancer cells
Details: paclitaxel 5 mg/kg
Description: After implanting MDA-MB-231 triple negative breast cancer cells to the nude mouse, the tumor has been grown to the 200 mm^3 volume. […] The tumor growth has been observed for 27 days.
The tumor volume and shape in the nude mouse have been observed for 27 days.

For `CC(=O)O[C@H]1C(=O)[C@@]2(C)[C@H]([C@H](OC(=O)c3ccccc3)[C@]3(O)C[C@H](OC(=O)[C@H](O)[C@@H](NC(=O)c4ccccc4)c4ccccc4)C(C)=C1C3(C)C)[C@]1(OC(C)=O)CO[C@@H]1C[C@@H]2O` [Paclitaxel, paclitaxel, reference compound], which “volume of tumor, Mean ± S.E.” value (day 0) is on record?
The value was 277.1 ± 16.2.

What about the “volume of tumor, Mean ± S.E.” value (day 3) of the same compound?
Its value is 354.3 ± 6.3.

And the “volume of tumor, Mean ± S.E.” value (day 6)?
The value was 437.9 ± 20.8.

What about the “volume of tumor, Mean ± S.E.” value (day 12) of the same compound?
The value was 716.8 ± 72.9.

What about the “volume of tumor, Mean ± S.E.” value (day 15) of the same compound?
Its value is 906.2 ± 88.2.

What about the “volume of tumor, Mean ± S.E.” value (day 18) of the same compound?
Its value is 1161.2 ± 86.4.

And the “volume of tumor, Mean ± S.E.” value (day 21)?
The value was 1421.7 ± 82.6.

What about the “volume of tumor, Mean ± S.E.” value (day 24) of the same compound?
Its value is 1760.2 ± 83.8.

And the “volume of tumor, Mean ± S.E.” value (day 27)?
The value was 2136.0 ± 125.9.

From patent US10285979B2, “Breast cancer therapeutic agent containing 5′-hydroxy-5-nitro-indirubin-3′-oxime as active ingredient” (ANYGEN CO., LTD., priority 2016, dated 2019)
